Measured values reported in US10005824B2, “Selective PYY compounds and uses thereof” (Novo Nordisk A/S, priority 2015, dated 2018).
Read-outs that look alike come from different tables or passages of the source.

Tests used:
[1] = molecular target: T1, human Y4 receptor (Homo sapiens, UniProt P50391); experiment: Scintillation proximity assay (SPA) receptor binding, Y4; conditions: membranes of CHO-K1 cells, [125I]-Pancreatic Polypeptide
T1 construct: expressed in transfected cells; host or cells: CHO-K1 (membrane preparation)
Procedure: (§1) The purpose of this example is to test the in vitro binding of the PYY compounds to the Y1, Y2, Y4 and Y5 receptor subtypes, respectively. The receptor binding affinity is a measure of affinity of a compound for the human Y1, Y2, Y4 and Y5 receptor subtypes, respectively.
(§2) Scintillation Proximity Assay (SPA)
(§3) NPY-Receptor Expressing Cell Lines.
(§4) All cells were cultured at +37° C. in a humidified atmosphere with 5% CO2. […] CHO-K1 cells stably expressing the human Y2 receptor (P49146, NPY2R_HUMAN, Uniprot) were cultured in DMEM F-12 with 10% FBS, 1% P/S, 150 μg/ml Hygromycin B and 10 μg/ml Puromycin antibiotic. CHO-K1 cells stably expressing the human Y4 receptor (P50391, NPY4R_HUMAN, Uniprot) were cultured in DMEM F-12 with 10% FBS, 1% P/S, 10 μg/ml Puromycin. HEK-293 cells stably expressing the human Y5 receptor (Q15761, NPY5R_HUMAN, Uniprot) were cultured in DMEM F-12 medium containing 10% FBS, 1% Penicillin-Streptomycin, 250 μg/ml G418 and 1 μg/ml puromycin.
(§5) The homogenate was centrifuged at 35000 g using an ultracentrifuge for 10 minutes at +4° C. and the supernatant was discarded and fresh homogenization buffer added. Homogenization of the pellet was repeated a total of three times.
(§6) Human Y receptor SPA binding assay were performed in white 96-well plates in a total volume of 200 μl per well.
(§7) Plates were sealed and incubated at +25° C. for 2 hours in a plate shaker set at 400 rpm and thereafter centrifuged at 1500 rpm for 10 minutes prior to reading of luminescence on a microplate scintillation and luminescence counter. […] Displacement of radioligand was measured as reduction in luminescence and IC50 values were calculated by nonlinear regression analysis of sigmoidal dose-response curves.

[2] = molecular target: T2, human Y1 receptor (Homo sapiens, UniProt P25929); experiment: Scintillation proximity assay (SPA) receptor binding, Y1
T2 construct: expressed in transfected cells; host or cells: BHK-21 clone 6-482-8, IPTG-induced (membrane preparation)
T2 sequence (P25929 1-384): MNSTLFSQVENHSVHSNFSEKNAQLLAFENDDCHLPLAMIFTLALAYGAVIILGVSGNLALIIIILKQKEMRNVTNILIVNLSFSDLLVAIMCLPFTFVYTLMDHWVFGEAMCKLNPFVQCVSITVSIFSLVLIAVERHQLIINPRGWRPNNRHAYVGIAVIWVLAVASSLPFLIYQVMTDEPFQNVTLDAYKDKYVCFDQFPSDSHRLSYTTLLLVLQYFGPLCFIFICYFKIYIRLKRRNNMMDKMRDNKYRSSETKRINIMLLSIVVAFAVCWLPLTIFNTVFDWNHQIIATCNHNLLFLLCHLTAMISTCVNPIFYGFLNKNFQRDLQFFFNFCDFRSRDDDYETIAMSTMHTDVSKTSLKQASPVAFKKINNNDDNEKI
Procedure: as §1, §2, §3, §4, §5, §6, §7

[3] = molecular target: T3, human NPY Y2 receptor (Homo sapiens, UniProt P49146); experiment: Actone functional potency assay (Y2 in vitro potency, whole cell); type: cell-based
T3 construct: host or cells: HEK-293 cells that also express a cAMP-sensitive calcium channel
T3 sequence (P49146 1-381): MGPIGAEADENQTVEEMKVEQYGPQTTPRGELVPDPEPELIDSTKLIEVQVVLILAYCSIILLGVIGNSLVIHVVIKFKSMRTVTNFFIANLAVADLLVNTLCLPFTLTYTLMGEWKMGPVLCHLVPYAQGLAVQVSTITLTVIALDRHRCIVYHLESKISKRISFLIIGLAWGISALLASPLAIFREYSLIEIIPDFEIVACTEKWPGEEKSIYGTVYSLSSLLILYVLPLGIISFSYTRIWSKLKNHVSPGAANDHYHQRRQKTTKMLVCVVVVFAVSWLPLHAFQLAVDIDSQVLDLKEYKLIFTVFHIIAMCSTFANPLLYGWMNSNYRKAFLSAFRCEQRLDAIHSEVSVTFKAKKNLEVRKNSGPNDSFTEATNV
Source text: The purpose of this example is to test the activity, or potency, of the PYY compounds in vitro. The Y2 in vitro potency is the measure of the activation of the human Y2 receptor subtype in a whole cell assay.
Actone Functional Potency Assay
The Neuropeptide Y (NPY) receptors are Gi-coupled seven trans-membrane receptors that mainly signal through the cAMP dependent pathway by inhibiting adenylate cyclase activity which results in a decrease of cAMP production from ATP. The Actone assay is based on a modified calcium channel that has a selective binding for cAMP, resulting in cellular calcium influx, detected by a calcium responsive dye. In order to measure decreased levels of cAMP, as result of NPY receptor activation, the β1/β2-adrenoreceptor agonist, isoproterenol, is added to activate adenylate cyclase and increases cAMP levels in the cell. Decreased cellular calcium concentrations, reflecting a decrease of cAMP levels due to NPY receptor activation, is detected as a decrease in fluorescence from the calcium sensitive dye.

T1 sequence (P50391 whole entry): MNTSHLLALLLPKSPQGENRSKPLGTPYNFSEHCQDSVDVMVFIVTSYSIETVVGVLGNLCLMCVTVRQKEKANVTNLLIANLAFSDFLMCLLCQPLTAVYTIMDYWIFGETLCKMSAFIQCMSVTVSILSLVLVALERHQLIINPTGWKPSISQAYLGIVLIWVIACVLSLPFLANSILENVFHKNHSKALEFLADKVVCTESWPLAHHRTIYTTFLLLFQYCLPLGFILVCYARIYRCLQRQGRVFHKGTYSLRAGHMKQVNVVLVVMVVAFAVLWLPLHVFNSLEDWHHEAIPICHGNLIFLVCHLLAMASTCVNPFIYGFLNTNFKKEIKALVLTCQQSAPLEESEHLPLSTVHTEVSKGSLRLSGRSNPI

Row | Ki ([1]; read-out: Y4 Ki) | Ki ([2]; membranes of BHK-21 cells, [125I]-PYY(1-36), read-out: Y1 Ki) | SMILES | EC50 [3] | Ki [2] | Ki ([1]; Y4 Ki)
1 | 5690 nM | > 10000 nM | CC(C)CC(=O)N[C@@H](CCCNC(=N)N)C(=O)N1CCC[C@H]1C(=O)N[C@@H](CCC(=O)O)C(=O)N[C@@H](C)C(=O)N1CCC[C@H]1C(=O)NCC(=O)N[C@@H](CCCCNC(=O)COCCOCCNC(=O)COCCOCCNC(=O)CC[C@H](NC(=O)CCCCCCCCCCCCCCCCC(=O)O)C(=O)O)C(=O)N[C@@H](CC(=O)O)C(=O)N[C@@H](C)C(=O)N[C@@H](CO)C(=O)N1CCC[C@H]1C(=O)N[C@@H](CCC(=O)O)C(=O)N[C@@H](CCC(=O)O)C(=O)N[C@@H](CC(C)C)C(=O)N[C@@H](CCC(N)=O)C(=O)N[C@@H](CCCNC(=N)N)C(=O)N[C@@H](Cc1ccc(O)cc1)C(=O)N[C@@H](Cc1ccc(O)cc1)C(=O)N[C@@H](C)C(=O)N[C@@H](CCC(=O)O)C(=O)N[C@@H](CC(C)C)C(=O)N[C@@H](CCCNC(=N)N)C(=O)N[C@@H](Cc1c[nH]cn1)C(=O)N[C@@H](Cc1ccc(O)cc1)C(=O)N[C@@H](Cc1ccc(O)cc1)C(=O)N[C@@H](CC(N)=O)C(=O)N[C@@H](Cc1c[nH]c2ccccc12)C(=O)N[C@@H](CC(C)C)C(=O)N[C@H](C(=O)N[C@@H](CCCNC(=N)N)C(=O)N[C@@H](CCC(N)=O)C(=O)N[C@@H](CCCNC(=N)N)C(=O)N[C@@H](Cc1ccc(O)cc1)C(N)=O)[C@@H](C)O [Compound 52, N{alpha-4}-(3-Methylbutanoyl)-N{Epsilon-10}-[2-[2-[2-[[2-[2-[2-[[(4S)-4-carboxy-4-(17-carboxyheptadecanoylamino)butanoyl]amino]ethoxy]ethoxy]acetyl]amino]-ethoxy]ethoxy]acetyl]-[Arg4,Lys10,Gln18,Glu23,Tyr28,Trp30,Leu31]-PYY(4-36)] | – | – | –
2 | – | – | CC(C)CC(=O)N[C@@H](CCCNC(=N)N)C(=O)N1CCC[C@H]1C(=O)N[C@@H](CCC(=O)O)C(=O)N[C@@H](C)C(=O)N1CCC[C@H]1C(=O)N1CCC[C@H]1C(=O)N[C@@H](CCCCNC(=O)CC[C@H](NC(=O)COCCOCCNC(=O)CC[C@H](NC(=O)CCCCCCCCCCCCCCCCC(=O)O)C(=O)O)C(=O)O)C(=O)N[C@@H](CC(=O)O)C(=O)N[C@@H](C)C(=O)N[C@@H](CO)C(=O)N1CCC[C@H]1C(=O)N[C@@H](CCC(=O)O)C(=O)N[C@@H](CCC(=O)O)C(=O)N[C@@H](CC(C)C)C(=O)N[C@@H](CCC(N)=O)C(=O)N[C@@H](CCCNC(=N)N)C(=O)N[C@@H](Cc1ccc(O)cc1)C(=O)N[C@@H](Cc1ccc(O)cc1)C(=O)N[C@@H](CCC(=O)O)C(=O)N[C@@H](CO)C(=O)N[C@@H](CC(C)C)C(=O)N[C@@H](CCCNC(=N)N)C(=O)N[C@@H](Cc1c[nH]cn1)C(=O)N[C@@H](Cc1ccc(O)cc1)C(=O)N[C@@H](Cc1ccc(O)cc1)C(=O)N[C@@H](CC(N)=O)C(=O)N[C@@H](Cc1c[nH]c2ccccc12)C(=O)N[C@@H](CC(C)C)C(=O)N[C@H](C(=O)N[C@@H](CCCNC(=N)N)C(=O)N[C@@H](CCC(N)=O)C(=O)N[C@@H](CCCNC(=N)N)C(=O)N[C@@H](Cc1ccc(O)cc1)C(N)=O)[C@@H](C)O [Compound 54, N{alpha-4}-(3-Methylbutanoyl)-N{Epsilon-10}-[(4S)-4-carboxy-4-[[2-[2-[2-[[(4S)-4-carboxy-4-(17-carboxyheptadecanoylamino)butanoyl]amino]ethoxy]ethoxy]-acetyl]amino]butanoyl]-[Arg4,Pro9,Lys10,Gln18,Glu22,Tyr28,Trp30,Leu31]-PYY(4-36)] | 1.6 nM | – | –
3 | – | – | CC(C)CC(=O)N[C@@H](CCCNC(=N)N)C(=O)N1CCC[C@H]1C(=O)N[C@@H](CCC(=O)O)C(=O)N[C@@H](CCCCNC(=O)CC[C@H](NC(=O)CCCCCCCCCCCCCCCCC(=O)O)C(=O)O)C(=O)N1CCC[C@H]1C(=O)N[C@H](C(=O)N[C@@H](CCC(=O)O)C(=O)N[C@@H](CC(=O)O)C(=O)N[C@@H](C)C(=O)N[C@@H](CO)C(=O)N1CCC[C@H]1C(=O)N[C@@H](CCC(=O)O)C(=O)N[C@@H](CCC(=O)O)C(=O)N[C@@H](CC(C)C)C(=O)N[C@@H](CCC(N)=O)C(=O)N[C@@H](CCCNC(=N)N)C(=O)N[C@@H](Cc1ccc(O)cc1)C(=O)N[C@@H](Cc1ccc(O)cc1)C(=O)N[C@@H](CCC(N)=O)C(=O)N[C@@H](CO)C(=O)N[C@@H](CC(C)C)C(=O)N[C@@H](CCCNC(=N)N)C(=O)N[C@@H](Cc1c[nH]cn1)C(=O)N[C@@H](Cc1ccc(O)cc1)C(=O)N[C@@H](Cc1ccc(O)cc1)C(=O)N[C@@H](CC(N)=O)C(=O)N[C@@H](Cc1c[nH]c2ccccc12)C(=O)N[C@@H](CC(C)C)C(=O)N[C@H](C(=O)N[C@@H](CCCNC(=N)N)C(=O)N[C@@H](CCC(N)=O)C(=O)N[C@@H](CCCNC(=N)N)C(=O)N[C@@H](Cc1ccc(O)cc1)C(N)=O)[C@@H](C)O)[C@@H](C)O [Compound 43, N{alpha-4}-(3-Methylbutanoyl)-N{Epsilon-7}-[(4S)-4-carboxy-4-(17-carboxy-heptadecanoylamino)butanoyl]-[Arg4,Lys7,Thr9,Gln18,Gln22,Tyr28,Trp30,Leu31]hPYY(4-36)] | 0.77 nM | > 10000 nM | –
4 | – | – | CC(C)CC(=O)N[C@@H](CCCNC(=N)N)C(=O)N1CCC[C@H]1C(=O)N[C@@H](CCC(=O)O)C(=O)N[C@@H](C)C(=O)N1CCC[C@H]1C(=O)NCC(=O)N[C@@H](CCCCNC(=O)COCCOCCNC(=O)COCCOCCNC(=O)CC[C@H](NC(=O)CCCCCCCCCCCCCCCCC(=O)O)C(=O)O)C(=O)N[C@@H](CC(=O)O)C(=O)N[C@@H](C)C(=O)N[C@@H](CO)C(=O)N1CCC[C@H]1C(=O)N[C@@H](CCC(=O)O)C(=O)N[C@@H](CCC(=O)O)C(=O)N[C@@H](CC(C)C)C(=O)N[C@@H](CCC(N)=O)C(=O)N[C@@H](CCCNC(=N)N)C(=O)N[C@@H](Cc1ccc(O)cc1)C(=O)N[C@@H](Cc1ccc(O)cc1)C(=O)N[C@@H](CCC(=O)O)C(=O)N[C@@H](CO)C(=O)N[C@@H](CC(C)C)C(=O)N[C@@H](CCCNC(=N)N)C(=O)N[C@@H](Cc1c[nH]cn1)C(=O)N[C@@H](Cc1ccc(O)cc1)C(=O)N[C@@H](Cc1ccc(O)cc1)C(=O)N[C@@H](CC(N)=O)C(=O)N[C@@H](Cc1c[nH]c2ccccc12)C(=O)N[C@@H](CC(C)C)C(=O)N[C@H](C(=O)N[C@@H](CCCNC(=N)N)C(=O)N[C@@H](CCC(N)=O)C(=O)N[C@@H](CCCNC(=N)N)C(=O)N[C@@H](Cc1ccc(O)cc1)C(N)=O)[C@@H](C)O [Compound 51, N{alpha-4}-(3-Methylbutanoyl)-N{Epsilon-10}-[2-[2-[2-[[2-[2-[2-[[(4S)-4-carboxy-4-(17-carboxyheptadecanoylamino)butanoyl]amino]ethoxy]ethoxy]acetyl]-amino]ethoxy]ethoxy]acetyl]-[Arg4,Lys10,Gln18,Glu22,Tyr28,Trp30,Leu31]-PYY(4-36)] | – | 2410 nM | > 10000 nM
